Test results reported in publication PMC9243584, “Population Pharmacokinetics of Colistin Sulfate in Critically Ill Patients: Exposure and Clinical Efficacy” (Frontiers in Pharmacology, 2022).
Counter-ions that a name gives are not always drawn. Like-named read-outs stand apart in the source and are kept apart here. Positions of bridges follow the written chain, without caps; N, C: chain ends. Non-standard residues stand in square brackets, D forms with d. Residues, ends and D or L forms follow the SMILES beside them. *: point of attachment. X1 = CC[C@H](C)CCCCC(=O)*; Dab = NCC[C@H](N)C(=O)O

Experiments:
[1] = Population pharmacokinetic modeling (NONMEM) of intravenous colistin sulfate from plasma concentrations in critically ill patients; format: in vivo, human
Excerpt: This retrospective, observational study was designed in accordance with the Declaration of Helsinki and was approved by the Ethical Committees of the First Affiliated Hospital of Wenzhou Medical University, China ([2022]036). Adult patients receiving colistin sulfate for confirmed multi-resistant Gram-negative bacterial infections from January 2020 to December 2021 at the First Affiliated Hospital of Wenzhou Medical University were selected. The inclusion criteria were as follows: a) ≥18 years of age; b) receiving colistin sulfate (Shanghai New Asia Pharmaceuticals, Shanghai, China) for at least 3 days; and c) at least one plasma concentration of colistin was collected.
The decision to administer colistin sulfate and its dosing regimen (dose amount, dosing interval, ways of administration, and treatment duration) was made by the attending physician. A loading dose of 1 million IU and a daily dose of 1.5 million IU divided into 2–3 times (maintenance dose) administered using an intravenous drip was recommended by the label sheet of colistin sulfate. In addition, for patients with pulmonary infection, inhalation of colistin sulfate (250,000 IU q12 h) was combinedly used; for patients with intracranial infection, colistin sulfate (50,000 IU q24 h) administered by the intraventricular/intrathecal (IVT/IT) route was combinedly used.
Plasma samples of colistin sulfate were collected after reaching the steady-state (attained after at least six doses). Dates and exact time of colistin sulfate administration and plasma sample collection were able to be indexed from the medical records. Plasma samples were separated by centrifugation for 5 min at 15,000 rpm immediately after sampling. The quantification of plasma concentration of colistin sulfate was performed using a validated high-performance liquid chromatography-tandem mass spectrometry assay ([Gobin et al., 2010]). The calibration ranges for colistin were 0.1–20 μg/ml. The method validations including calibration curve, selectivity, accuracy, precision, matrix effect, recovery, and stability met the requirement of FDA principles.
PopPK analysis was performed using the nonlinear mixed-effects modeling program NONMEM (version 7.4, Icon Development Solutions, Ellicott City, MD, USA) and Pirana (version 2.9.7). R (version 3.6.0) and Xpose (version 4.3.2) software packages were applied to generate diagnostic plots.
One- and two-compartment structural models with first-order elimination were explored for the concentration–time profiles of colistin sulfate. Between-subject variability (BSV) was assessed using an exponential function. Residual variability was assessed using additive, proportional, or combined (additive plus proportional) error models. The base model was selected based on the visual inspection of diagnostic plots and goodness-of-fit criteria, including precision and plausibility of parameter estimation and improvement of the objective function value (OFV).
Relationships between individual empirical Bayesian estimates of PK parameters and patient covariates were examined visually. Covariates were included using a stepwise forward selection process until no further decrease in OFV was observed. All of the significant covariates were then incorporated into the basic model to construct a full model. The included covariates were further assessed using backward elimination. The additional criterion for retaining the covariate in the final model was the decrease in the unexplained BSV and increase in PK parameter estimate precision.
Goodness-of-fit plots, nonparametric bootstrap, and visual predictive check were performed to evaluate the final model and parameter estimates. A nonparametric bootstrap procedure was conducted to assess the performance and stability of the final model. Random sampling with replacement was utilized to generate 1,000 replicate datasets using the individual as the sampling unit. […]

[2] = test system: isolates with lower MIC values (≤2 μg/ml); details: isolates with MIC ≤2 μg/ml for both compounds; ref Sader et al., 2015; cited from earlier work
Excerpt: (§1) It should be noted that the currently used colistin sulfate in China was reapproved for clinical use by the Chinese National Medical Products Administration (NPMA) in 2018. Thus, modern pharmacological data including the clinical efficacy and side effects have not been reported. […] The clinical efficacy of colistin sulfate in the current study was similar to the efficacy of polymyxin B reported by [Lu et al. (2021]), who performed a retrospec ...

[3] = critically ill patients, ref Cheah et al., 2015, cited from earlier work
[4] = Acute kidney injury (RIFLE criteria) and colistin sulfate-related nephrotoxicity (Naranjo criteria); format: in vivo, human; details: 42 patients, not considered colistin's nephrotoxicity by Naranjo criteria
Method: Acute kidney injury (AKI) during the treatment of colistin sulfate was assessed using RIFLE criteria. AKI was defined as a 1.5-fold or more increase in serum creatinine and/or a decrease in the glomerular filtration rate (GFR) of 25% or more ([Han et al., 2022]). The definition of nephrotoxicity caused by colistin sulfate was further confirmed using the Naranjo criteria.

[5] = parameters: method as in 2 sources, one per row (each row's own in cited_ref): ref Yu et al., 2021 ||| ref Wang et al., 2020; details: cited from earlier work
[6] = test system: CRO; details: retrospective study, Chinese patients with CRO infections, median daily dose 1.72 mg/kg; ref Lu et al. (2021); cited from earlier work
Excerpt: as §1

[7] = ref Han et al., 2022; cited from earlier work
Excerpt: as §1, with “... || Nephrotoxicity is the main toxicity of concern with the treatment of polymyxins. However, it is amazing that no patient developed colistin sulfate-related nephrotoxicity in our study. […] Considering that polymyxin B and colistin have very similar molecular structures and PK characteristics, it is reasonable to conclude that the safety threshold of nephrotoxicity of colistin sulfate approaches that of polymyxin B. In the current study, most patient ...” for “...”

CC[C@H](C)CCCCC(=O)N[C@@H](CCN)C(=O)N[C@H](C(=O)N[C@@H](CCN)C(=O)N[C@H]1CCNC(=O)[C@H]([C@@H](C)O)NC(=O)[C@H](CCN)NC(=O)[C@H](CCN)NC(=O)[C@H](CC(C)C)NC(=O)[C@@H](CC(C)C)NC(=O)[C@H](CCN)NC1=O)[C@@H](C)O [colistin sulfate] (X1-[Dab]T[Dab][Dab][Dab][dL]L[Dab][Dab]T; lactam 4-C)
CrCL on CL (θ1) ([1]; final model, covariate coefficient in CL = 0.994 + 0.525×CrCL/66.47): 0.525 | TVV (typical value of volume of distribution) ([1]; final model, one-compartment): 20.7 L | TVCL (typical value of clearance) ([1]; final model, one-compartment, CL = 0.994 + 0.525×CrCL/66.47): 0.994 L/h | clearance ([1]; human, plasma, iv, base model (Table S1), read-out: TVCL (converted)): 27.2 mL/min | Vd ([1]; human, plasma, iv, base model (Table S1), read-out: TVV): 20.6 L | Vd ([1]; human, plasma, iv, final model, one-compartment, read-out: TVV (typical value of volume of distribution)): 20.7 L | clearance ([1]; human, plasma, iv, mean ± SD across all 42 patients, SD, read-out: CL, individual empirical Bayesian estimate (converted)): 29 mL/min | AUC(0-t) ([1]; human, plasma, iv, mean ± SD, MAP Bayesian estimate per patient with the final PK model, SD, read-out: AUC (AUC0-24 at steady state, AUC0-24,ss)): 39400 ± 14500 ng·h/mL | potency compared with polymyxin B [2]: slightly greater potency than polymyxin B | plasma unbound fraction [3]: 0.5 | plasma unbound fraction ([3]; listed as colistin): about 0.5 | patients who developed AKI during the treatment [4]: two

polymyxin B sulfate
median CL ([5]; Chinese adult patients, ref Wang et al., 2020): 1.78 L/h | CL ([5]; mean ± SD, adult critically ill patients, 112 concentrations from 32 patients, ref Yu et al., 2021, SD): 1.75 L/h | V ([5]; one-compartment model, adult critically ill patients, ref Yu et al., 2021): 20.5 L | patients who achieved clinical success [6]: 57.6% | Cmin to prevent polymyxin B-related nephrotoxicity [7]: below 3.13 mg/L
